From patent US8367873B2, “Phenyl-substituted bicyclooctane-1,3-dione derivatives” (Bayer Cropscience AG, priority 2008, dated 2013)

Assays:
Format in all cases: in vivo
[1] = system: monocotylidonous and dicotylidonous weed and crop plants; assay: Herbicidal post-emergence action (other test plants); conditions: post-emergence method; for herbicidal effect against AVEFA (Avena fatua): 80 g/ha; for pest or weed control at 80 g/ha: 504 h, Avena fatua, read-out: herbicidal effect against AVEFA (Avena fatua)
Method: (§1) Seeds of monocotylidonous and dicotylidonous weed and crop plants are placed in sandy loam in wood fibre pots, covered with soil and cultivated in a greenhouse under good growth conditions. Two to three weeks after sowing, the test plants are treated at the one-leaf stage. The test compounds, formulated as wettable powders (WP), are then with a water application rate of 600 l/ha (converted), with 0.2% of wetting agent added, sprayed onto the green parts of the plants in different amounts. After the test plants have been kept in the greenhouse under optimum growth conditions for about three weeks, the effect of the preparations is assessed visually in comparison to untreated controls (herbicidal effect in percent: 100% effect=the plants have died, 0% effect=like control plants).

Setaria viridis = assay: Herbicidal post-emergence action; conditions: post-emergence method; for herbicidal effect against SETVI (Setaria viridis): 80 g/ha; for pest or weed control at 80 g/ha: Setaria viridis, 504 h, read-out: herbicidal effect against SETVI (Setaria viridis)
Method: as §1

Lolium multiflorum = assay: Herbicidal post-emergence action; conditions: post-emergence method; for herbicidal effect against LOLMU (Lolium multiflorum): 80 g/ha; for pest or weed control at 80 g/ha: Lolium multiflorum, 504 h, read-out: herbicidal effect against LOLMU (Lolium multiflorum)
Method: as §1

Alopecurus myosuroides = assay: Herbicidal post-emergence action; conditions: post-emergence method; for herbicidal effect against ALOMY (Alopecurus myosuroides): 80 g/ha; for pest or weed control at 80 g/ha: Alopecurus myosuroides, 504 h, read-out: herbicidal effect against ALOMY (Alopecurus myosuroides)
Method: as §1

Echinocloa crus-galli = assay: Herbicidal post-emergence action; conditions: post-emergence method; for herbicidal effect against ECHCG (Echinochloa crus-galli): 80 g/ha; for pest or weed control at 80 g/ha: Echinochloa crus-galli, 504 h, read-out: herbicidal effect against ECHCG (Echinochloa crus-galli)
Method: as §1

| SMILES | herbicidal effect against AVEFA (Avena fatua) [1] [%] | herbicidal effect against SETVI (Setaria viridis) (Setaria viridis) [%] | herbicidal effect against LOLMU (Lolium multiflorum) (Lolium multiflorum) [%] | herbicidal effect against ALOMY (Alopecurus myosuroides) (Alopecurus myosuroides) [%] | herbicidal effect against ECHCG (Echinochloa crus-galli) (Echinocloa crus-galli) [%] | pest or weed control at 80 g/ha [1] [%] | pest or weed control at 80 g/ha (Setaria viridis) [%] | pest or weed control at 80 g/ha (Lolium multiflorum) [%] | pest or weed control at 80 g/ha (Alopecurus myosuroides) [%] | pest or weed control at 80 g/ha (Echinocloa crus-galli) [%] |
| --- | --- | --- | --- | --- | --- | --- | --- | --- | --- | --- |
| CCc1cc(C)cc(C)c1C1=C(O)C2CC(=O)CC2C1=O (stereo not shown) [I-a-56] | 0 | 100 | 0 | 0 | 100 | – | – | – | – | – |
| CON=C1CC2C(=O)C(c3c(C)cc(C)cc3C)=C(O)C2C1 (stereo not shown) [I-a-44] | 0 | 80 | 20 | 20 | 100 | – | – | – | – | – |
| C=C1CC2C(=O)C(c3c(C)cc(C)cc3C)=C([O-])C2C1.[Na+] (stereo not shown) [I-f-23] | 0 | 80 | 60 | 0 | 90 | – | – | – | – | – |
| COC(=O)OC1=C(c2c(C)cc(C)cc2C)C(=O)C2CC(=O)CC12 (racemic) [I-c-57] | 0 | 90 | 0 | 90 | 100 | – | – | – | – | – |
| CCOC(=O)OC1=C(c2c(CC)cc(C)cc2CC)C(=O)[C@@H]2CC3(C[C@H]12)SCCS3 (relative stereo) [I-c-15] | 60 | 90 | 90 | 90 | 90 | – | – | – | – | – |
| Cc1cc(C)c(C2=C(OC(=O)OC(C)C)C3CC4(COC(C)(C)O4)CC3C2=O)c(C)c1 (mixture of isomers) [I-c-55] | 20 | 30 | 100 | 80 | 100 | – | – | – | – | – |
| C#CCON=C1CC2C(=O)C(c3c(C)cc(C)cc3C)=C(O)C2C1 (stereo not shown) [I-a-43] | 0 | 40 | 40 | 20 | 90 | – | – | – | – | – |
| C#CCON=C1CC2C(=O)C(c3c(C)cc(C)cc3C)=C(OC(=O)C(C)(C)C)C2C1 (stereo not shown) [I-b-59] | 0 | 0 | 80 | 20 | 80 | – | – | – | – | – |
| C#CCON=C1CC2C(=O)C(c3c(C)cc(C)cc3C)=C(OC(=O)OCC)C2C1 (racemic) [I-c-60] | 0 | 0 | 80 | 20 | 100 | – | – | – | – | – |
| Cc1cc(C)c(C2=C(OC(=O)CC(C)C)C3CC(=O)CC3C2=O)c(C)c1 (stereo not shown) [I-b-56] | 0 | 100 | 0 | 20 | 100 | – | – | – | – | – |
| CCc1cc(C)cc(CC)c1C1=C(OC(=O)OC)[C@H]2C[C@@]3(COC(C)(C)O3)C[C@H]2C1=O [I-c-1] | – | – | – | – | – | 60 | 40 | 100 | 100 | 60 |
| COc1cc(C)cc(C)c1C1=C(O)C2CC3(CC2C1=O)OCCCO3 (stereo not shown) [I-a-47] | 80 | 100 | 100 | 20 | 100 | – | – | – | – | – |
| Cc1cc(C)c(C2=C(OC(=O)CC(C)C)C3CC4(COC(C)(C)O4)CC3C2=O)c(C)c1 (mixture of isomers) [I-b-44] | 80 | 60 | 100 | 80 | 80 | – | – | – | – | – |
| COCC(=O)OC1=C(c2c(C)cc(C)cc2C)C(=O)C2CC3(COC(C)(C)O3)CC12 (mixture of isomers) [I-b-47] | 80 | 0 | 90 | 90 | 100 | – | – | – | – | – |
| Cc1cc(C)c(C2=C([O-])C3CC4(CC3C2=O)OCCCCO4)c(C)c1.[Na+] (stereo not shown) [I-f-10] | 80 | 90 | 100 | 100 | 90 | – | – | – | – | – |
| COc1cc(C)cc(C)c1C1=C(O)C2CC(=O)CC2C1=O (stereo not shown) [I-a-46] | 0 | 40 | 0 | 0 | 100 | – | – | – | – | – |
| Cc1cc(C)c(C2=C(O)[C@H]3CC4(C[C@H]3C2=O)OCCCO4)c(C)c1 (relative stereo) [I-a-37] | 90 | 60 | 100 | 60 | 100 | – | – | – | – | – |
| CCc1cc(C)cc(C)c1C1=C(O)C2CC3(CC2C1=O)OCC=CCO3 (stereo not shown) [I-a-60] | 90 | 100 | 100 | 100 | 100 | – | – | – | – | – |
| Cc1cc(C)c(C2=C([O-])C3CC4(CC3C2=O)OC(C)CC(C)O4)c(C)c1.[Na+] (stereo not shown) [I-f-3] | 0 | 80 | 90 | 90 | 90 | – | – | – | – | – |
| CCOC(=O)OC1=C(c2c(C)cc(C)cc2C)C(=O)C2CC3(CC12)OCCCO3 (racemic) [I-c-47] | 90 | 60 | 100 | 100 | 100 | – | – | – | – | – |
| CCOC(=O)OC1=C(c2c(CC)cc(C)cc2CC)C(=O)C2CC3(CC12)SCCCS3 (stereo not shown) [I-c-16] | 30 | 30 | 80 | 0 | 90 | – | – | – | – | – |
| CCc1cc(C)cc(CC)c1C1C(=O)[C@H]2C/C(=N\OC)C[C@H]2C1=O (stereo partly shown) [I-a-18] | – | – | – | – | – | 60 | 90 | 100 | 90 | 100 |
| COC(=O)OC1=C(c2c(C)cc(C)cc2C)C(=O)C2CC3(CC12)OCCCCO3 (racemic) [I-c-49] | 80 | 80 | 100 | 100 | 90 | – | – | – | – | – |
